#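 Where inhibition never reached the appropriate level, the endpoint shown equals the highest concentration tested. Otherwise, values were interpolated linearly from a five-concentration, 48-hour dose response in 96-well plates. GI50 is the concentration that inhibits growth by half. TGI denotes the concentration required for complete inhibition of growth.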
# Tests used:
# Assay in all cases: growth of human tumour cells (NCI), 48 h
# 786-0 renal = test system: 786-0 renal
# A498 renal = test system: A498 renal
# A549 NSCLC = test system: A549 NSCLC
# ACHN renal = test system: ACHN renal
# BT-549 breast = test system: BT-549 breast
# CAKI-1 renal = test system: CAKI-1 renal
# CCRF-CEM leukemia = test system: CCRF-CEM leukemia
# COLO 205 colon = test system: COLO 205 colon
# DU-145 prostate = test system: DU-145 prostate
# HCC-2998 colon = test system: HCC-2998 colon
# HCT-116 colon = test system: HCT-116 colon
# HCT-15 colon = test system: HCT-15 colon
# HL-60(TB) leukemia = test system: HL-60(TB) leukemia
# HOP-62 NSCLC = test system: HOP-62 NSCLC
# HOP-92 NSCLC = test system: HOP-92 NSCLC
# HS 578T breast = test system: HS 578T breast
# HT29 colon = test system: HT29 colon
# IGROV1 ovarian = test system: IGROV1 ovarian
# K-562 leukemia = test system: K-562 leukemia
# KM12 colon = test system: KM12 colon
# LOX IMVI melanoma = test system: LOX IMVI melanoma
# M14 melanoma = test system: M14 melanoma
# MALME-3M melanoma = test system: MALME-3M melanoma
# MCF7 breast = test system: MCF7 breast
# MDA-MB-231 breast = test system: MDA-MB-231 breast
# MDA-MB-435 = test system: MDA-MB-435
# MOLT-4 leukemia = test system: MOLT-4 leukemia
# NCI-H226 lung = test system: NCI-H226 lung
# NCI-H23 lung = test system: NCI-H23 lung
# NCI-H460 lung = test system: NCI-H460 lung
# NCI-H522 lung = test system: NCI-H522 lung
# NCI/ADR-RES ovarian = test system: NCI/ADR-RES ovarian
# OVCAR-3 ovarian = test system: OVCAR-3 ovarian
# OVCAR-4 ovarian = test system: OVCAR-4 ovarian
# OVCAR-5 ovarian = test system: OVCAR-5 ovarian
# OVCAR-8 ovarian = test system: OVCAR-8 ovarian
# PC-3 prostate = test system: PC-3 prostate
# RPMI-8226 leukemia = test system: RPMI-8226 leukemia
# RXF 393 renal = test system: RXF 393 renal
# SF-268 CNS = test system: SF-268 CNS
# SF-295 CNS = test system: SF-295 CNS
# SF-539 CNS = test system: SF-539 CNS
# SK-MEL-2 melanoma = test system: SK-MEL-2 melanoma
# SK-MEL-28 melanoma = test system: SK-MEL-28 melanoma
# SK-MEL-5 melanoma = test system: SK-MEL-5 melanoma
# SK-OV-3 ovarian = test system: SK-OV-3 ovarian
# SN12C renal = test system: SN12C renal
# SNB-19 CNS = test system: SNB-19 CNS
# SNB-75 CNS = test system: SNB-75 CNS
# SR leukemia = test system: SR leukemia
# SW-620 colon = test system: SW-620 colon
# T-47D breast = test system: T-47D breast
# TK-10 renal = test system: TK-10 renal
# U251 CNS = test system: U251 CNS
# UACC-257 melanoma = test system: UACC-257 melanoma
# UACC-62 melanoma = test system: UACC-62 melanoma
# UO-31 renal = test system: UO-31 renal
compound,measurement,setting,value
O=[N+]([O-])c1cccc(C2CC(c3ccccc3)=Nc3ccccc3S2)c1 (centres undefined),GI50,786-0 renal,17.3 µM
same,TGI,786-0 renal,31.6 µM
same,GI50,A498 renal,14.7 µM
same,TGI,A498 renal,95.8 µM
same,GI50,A549 NSCLC,30.6 µM
same,TGI,A549 NSCLC,> 100 µM
same,GI50,ACHN renal,13.9 µM
same,TGI,ACHN renal,28.5 µM
same,GI50,BT-549 breast,13.2 µM
same,TGI,BT-549 breast,26.7 µM
same,GI50,CAKI-1 renal,21.8 µM
same,TGI,CAKI-1 renal,> 100 µM
same,GI50,CCRF-CEM leukemia,5.91 µM
same,TGI,CCRF-CEM leukemia,> 100 µM
same,GI50,COLO 205 colon,19.2 µM
same,TGI,COLO 205 colon,41.7 µM
same,GI50,DU-145 prostate,16.8 µM
same,TGI,DU-145 prostate,34.3 µM
same,GI50,HCC-2998 colon,16 µM
same,TGI,HCC-2998 colon,31 µM
same,GI50,HCT-116 colon,2.94 µM
same,TGI,HCT-116 colon,9 µM
same,GI50,HCT-15 colon,4.84 µM
same,TGI,HCT-15 colon,18.7 µM
same,GI50,HL-60(TB) leukemia,26.5 µM
same,TGI,HL-60(TB) leukemia,84.7 µM
same,GI50,HOP-62 NSCLC,37.8 µM
same,TGI,HOP-62 NSCLC,> 100 µM
same,GI50,HOP-92 NSCLC,14.3 µM
same,TGI,HOP-92 NSCLC,45.6 µM
same,GI50,HS 578T breast,20 µM
same,TGI,HS 578T breast,> 100 µM
same,GI50,HT29 colon,8.25 µM
same,TGI,HT29 colon,24.3 µM
same,GI50,IGROV1 ovarian,16.1 µM
same,TGI,IGROV1 ovarian,35.6 µM
same,GI50,K-562 leukemia,3.76 µM
same,TGI,K-562 leukemia,> 100 µM
same,GI50,KM12 colon,6.32 µM
same,TGI,KM12 colon,19.3 µM
same,GI50,LOX IMVI melanoma,3.02 µM
same,TGI,LOX IMVI melanoma,11.9 µM
same,GI50,M14 melanoma,19.2 µM
same,TGI,M14 melanoma,44.6 µM
same,GI50,MALME-3M melanoma,17.9 µM
same,TGI,MALME-3M melanoma,46.1 µM
same,GI50,MCF7 breast,2.06 µM
same,TGI,MCF7 breast,13.3 µM
same,GI50,MDA-MB-231 breast,12.9 µM
same,TGI,MDA-MB-231 breast,33.6 µM
same,GI50,MDA-MB-435,15.7 µM
same,TGI,MDA-MB-435,37.7 µM
same,GI50,MOLT-4 leukemia,7.44 µM
same,TGI,MOLT-4 leukemia,> 100 µM
same,GI50,NCI-H226 lung,72.4 µM
same,TGI,NCI-H226 lung,> 100 µM
same,GI50,NCI-H23 lung,17.9 µM
same,TGI,NCI-H23 lung,61.8 µM
same,GI50,NCI-H460 lung,20.5 µM
same,TGI,NCI-H460 lung,48.7 µM
same,GI50,NCI-H522 lung,10.8 µM
same,TGI,NCI-H522 lung,23.5 µM
same,GI50,NCI/ADR-RES ovarian,22.1 µM
same,TGI,NCI/ADR-RES ovarian,> 100 µM
same,GI50,OVCAR-3 ovarian,13.3 µM
same,TGI,OVCAR-3 ovarian,26.1 µM
same,GI50,OVCAR-4 ovarian,11.7 µM
same,TGI,OVCAR-4 ovarian,26.4 µM
same,GI50,OVCAR-5 ovarian,13.9 µM
same,TGI,OVCAR-5 ovarian,28.1 µM
same,GI50,OVCAR-8 ovarian,15.5 µM
same,TGI,OVCAR-8 ovarian,39.6 µM
same,GI50,PC-3 prostate,10.1 µM
same,TGI,PC-3 prostate,28.7 µM
same,GI50,RPMI-8226 leukemia,3.41 µM
same,TGI,RPMI-8226 leukemia,17.3 µM
same,GI50,RXF 393 renal,17.2 µM
same,TGI,RXF 393 renal,36.6 µM
same,GI50,SF-268 CNS,13.1 µM
same,TGI,SF-268 CNS,26.9 µM
same,GI50,SF-295 CNS,25.1 µM
same,TGI,SF-295 CNS,77.7 µM
same,GI50,SF-539 CNS,17.2 µM
same,TGI,SF-539 CNS,31.3 µM
same,GI50,SK-MEL-2 melanoma,21 µM
same,TGI,SK-MEL-2 melanoma,43.6 µM
same,GI50,SK-MEL-28 melanoma,17.4 µM
same,TGI,SK-MEL-28 melanoma,34.2 µM
same,GI50,SK-MEL-5 melanoma,15.9 µM
same,TGI,SK-MEL-5 melanoma,29.6 µM
same,GI50,SK-OV-3 ovarian,34.9 µM
same,TGI,SK-OV-3 ovarian,> 100 µM
same,GI50,SN12C renal,13.4 µM
same,TGI,SN12C renal,26.8 µM
same,GI50,SNB-19 CNS,15.4 µM
same,TGI,SNB-19 CNS,44.8 µM
same,GI50,SNB-75 CNS,9.53 µM
same,TGI,SNB-75 CNS,> 100 µM
same,GI50,SR leukemia,3.4 µM
same,TGI,SR leukemia,> 100 µM
same,GI50,SW-620 colon,3.03 µM
same,TGI,SW-620 colon,12 µM
same,GI50,T-47D breast,16.6 µM
same,TGI,T-47D breast,52.6 µM
same,GI50,TK-10 renal,22.1 µM
same,TGI,TK-10 renal,42.2 µM
same,GI50,U251 CNS,8.48 µM
same,TGI,U251 CNS,21.2 µM
same,GI50,UACC-257 melanoma,21.6 µM
same,TGI,UACC-257 melanoma,61 µM
same,GI50,UACC-62 melanoma,12.1 µM
same,TGI,UACC-62 melanoma,44.1 µM
same,GI50,UO-31 renal,9.61 µM
same,TGI,UO-31 renal,21.9 µM
